{"source": "ChEMBL document CHEMBL1201862", "about": "“PubChem BioAssay data set” (2004)", "test_in_all_cases": "inhibition of tumour cell growth, NCI panel, 48 h", "key": {"TK-10": {"system": "TK-10"}, "IGROV-1": {"system": "IGROV-1"}, "A498": {"system": "A498"}, "HL-60": {"system": "HL-60"}, "SF-539": {"system": "SF-539"}, "NCI/ADR-RES": {"system": "NCI/ADR-RES"}, "M14": {"system": "M14"}, "HCT-15": {"system": "HCT-15"}, "786-0": {"system": "786-0"}, "A549": {"system": "A549"}, "SNB-75": {"system": "SNB-75"}, "OVCAR-4": {"system": "OVCAR-4"}, "NCI-H460": {"system": "NCI-H460"}, "SNB-19": {"system": "SNB-19"}, "SF-268": {"system": "SF-268"}, "CCRF-CEM": {"system": "CCRF-CEM"}, "COLO 205": {"system": "COLO 205"}, "KM12": {"system": "KM12"}, "K562": {"system": "K562"}, "DU-145": {"system": "DU-145"}, "MCF7": {"system": "MCF7"}, "HCC 2998": {"system": "HCC 2998"}, "PC-3": {"system": "PC-3"}, "HCT-116": {"system": "HCT-116"}, "MDA-MB-435": {"system": "MDA-MB-435"}, "LOX IMVI": {"system": "LOX IMVI"}, "EKVX": {"system": "EKVX"}, "T47D": {"system": "T47D"}, "UACC-257": {"system": "UACC-257"}, "SW-620": {"system": "SW-620"}, "UACC-62": {"system": "UACC-62"}, "HOP-92": {"system": "HOP-92"}, "SK-MEL-2": {"system": "SK-MEL-2"}, "MDA-N": {"system": "MDA-N"}, "SR": {"system": "SR"}, "OVCAR-3": {"system": "OVCAR-3"}, "U-251": {"system": "U-251"}, "MDA-MB-231": {"system": "MDA-MB-231"}, "BT-549": {"system": "BT-549"}, "SK-MEL-28": {"system": "SK-MEL-28"}, "SK-MEL-5": {"system": "SK-MEL-5"}, "Malme-3M": {"system": "Malme-3M"}, "SN12C": {"system": "SN12C"}, "NCI-H23": {"system": "NCI-H23"}, "MOLT-4": {"system": "MOLT-4"}, "SK-OV-3": {"system": "SK-OV-3"}, "UO-31": {"system": "UO-31"}, "ACHN": {"system": "ACHN"}, "HT-29": {"system": "HT-29"}, "NCI-H522": {"system": "NCI-H522"}, "CAKI-1": {"system": "CAKI-1"}, "OVCAR-8": {"system": "OVCAR-8"}, "OVCAR-5": {"system": "OVCAR-5"}, "RXF 393": {"system": "RXF 393"}, "HOP-62": {"system": "HOP-62"}, "SF-295": {"system": "SF-295"}}, "note": "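Growth conditions: 96-well plates. Treatment: test compound, 48 hours, 5 concentrations. Analysis: linear interpolation between bracketing concentrations; unreached endpoints set to highest concentration. At the GI50, growth is halved.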 Activity calls are given as the source filed them. Cut-off read from the data, not from the text of the source: active = GI50 up to about 1.1 µM and inactive = higher.", "data": [{"molecule": "COC(=O)C(=O)c1cc2ccccc2n1S(=O)(=O)c1ccccc1", "values": [{"measurement": "GI50", "setting": "TK-10", "result": "> 100 µM (inactive)"}, {"measurement": "GI50", "setting": "IGROV-1", "result": "> 100 µM (inactive)"}, {"measurement": "GI50", "setting": "A498", "result": "> 100 µM (inactive)"}, {"measurement": "GI50", "setting": "HL-60", "result": "> 100 µM (inactive)"}, {"measurement": "GI50", "setting": "SF-539", "result": "> 100 µM (inactive)"}, {"measurement": "GI50", "setting": "NCI/ADR-RES", "result": "> 100 µM (inactive)"}, {"measurement": "GI50", "setting": "M14", "result": "> 100 µM (inactive)"}, {"measurement": "GI50", "setting": "HCT-15", "result": "> 100", "unit": "µM"}, {"measurement": "GI50", "setting": "786-0", "result": "> 100 µM (inactive)"}, {"measurement": "GI50", "setting": "A549", "result": "> 100 µM (inactive)"}, {"measurement": "GI50", "setting": "SNB-75", "result": "84.5 µM (inactive)"}, {"measurement": "GI50", "setting": "OVCAR-4", "result": "> 100 µM (inactive)"}, {"measurement": "GI50", "setting": "NCI-H460", "result": "> 100 µM (inactive)"}, {"measurement": "GI50", "setting": "SNB-19", "result": "> 100 µM (inactive)"}, {"measurement": "GI50", "setting": "SF-268", "result": "> 100 µM (inactive)"}, {"measurement": "GI50", "setting": "CCRF-CEM", "result": "> 100 µM (inactive)"}, {"measurement": "GI50", "setting": "COLO 205", "result": "> 100 µM (inactive)"}, {"measurement": "GI50", "setting": "KM12", "result": "> 100 µM (inactive)"}, {"measurement": "GI50", "setting": "K562", "result": "> 100 µM (inactive)"}, {"measurement": "GI50", "setting": "DU-145", "result": "> 100 µM (inactive)"}, {"measurement": "GI50", "setting": "MCF7", "result": "> 100 µM (inactive)"}, {"measurement": "GI50", "setting": "HCC 2998", "result": "> 100 µM (inactive)"}, {"measurement": "GI50", "setting": "PC-3", "result": "> 100 µM (inactive)"}, {"measurement": "GI50", "setting": "HCT-116", "result": "> 100 µM (inactive)"}, {"measurement": "GI50", "setting": "MDA-MB-435", "result": "> 100 µM (inactive)"}, {"measurement": "GI50", "setting": "LOX IMVI", "result": "> 100 µM (inactive)"}, {"measurement": "GI50", "setting": "EKVX", "result": "> 100 µM (inactive)"}, {"measurement": "GI50", "setting": "T47D", "result": "> 100 µM (inactive)"}, {"measurement": "GI50", "setting": "UACC-257", "result": "> 100 µM (inactive)"}, {"measurement": "GI50", "setting": "SW-620", "result": "> 100 µM (inactive)"}, {"measurement": "GI50", "setting": "UACC-62", "result": "> 100 µM (inactive)"}, {"measurement": "GI50", "setting": "HOP-92", "result": "> 100 µM (inactive)"}, {"measurement": "GI50", "setting": "SK-MEL-2", "result": "> 100 µM (inactive)"}, {"measurement": "GI50", "setting": "MDA-N", "result": "> 100 µM (inactive)"}, {"measurement": "GI50", "setting": "SR", "result": "> 100 µM (inactive)"}, {"measurement": "GI50", "setting": "OVCAR-3", "result": "> 100 µM (inactive)"}, {"measurement": "GI50", "setting": "U-251", "result": "> 100 µM (inactive)"}, {"measurement": "GI50", "setting": "MDA-MB-231", "result": "> 100 µM (inactive)"}, {"measurement": "GI50", "setting": "BT-549", "result": "> 100 µM (inactive)"}, {"measurement": "GI50", "setting": "SK-MEL-28", "result": "> 100 µM (inactive)"}, {"measurement": "GI50", "setting": "SK-MEL-5", "result": "> 100 µM (inactive)"}, {"measurement": "GI50", "setting": "Malme-3M", "result": "> 100 µM (inactive)"}, {"measurement": "GI50", "setting": "SN12C", "result": "> 100 µM (inactive)"}, {"measurement": "GI50", "setting": "NCI-H23", "result": "> 100 µM (inactive)"}, {"measurement": "GI50", "setting": "MOLT-4", "result": "> 100 µM (inactive)"}, {"measurement": "GI50", "setting": "SK-OV-3", "result": "> 100 µM (inactive)"}, {"measurement": "GI50", "setting": "UO-31", "result": "> 100 µM (inactive)"}, {"measurement": "GI50", "setting": "ACHN", "result": "> 100 µM (inactive)"}, {"measurement": "GI50", "setting": "HT-29", "result": "> 100 µM (inactive)"}, {"measurement": "GI50", "setting": "NCI-H522", "result": "> 100 µM (inactive)"}, {"measurement": "GI50", "setting": "CAKI-1", "result": "> 100 µM (inactive)"}, {"measurement": "GI50", "setting": "OVCAR-8", "result": "> 100 µM (inactive)"}, {"measurement": "GI50", "setting": "OVCAR-5", "result": "> 100 µM (inactive)"}, {"measurement": "GI50", "setting": "RXF 393", "result": "> 100 µM (inactive)"}, {"measurement": "GI50", "setting": "HOP-62", "result": "> 100 µM (inactive)"}, {"measurement": "GI50", "setting": "SF-295", "result": "> 100 µM (inactive)"}]}]}
